Data published in patent US10093674B2, “Supramolecular nanofibers and hydrogels based on nucleic acids functionalized with nucleobases” (Brandeis University, priority 2011, dated 2018).

How the values were obtained:
HeLa cells [1] = settings: 500 μM 1T′ and 0.1 μM nucleic acid complex, 24 h
Protocol: HeLa cells were seeded in 2 well chamber slide at a density of 10,000 cell/well. […] After incubation at 37° C. for 24 h, we removed the culture medium, washed the cells by 1 mL PBS for 3 times, then resin the cells in 1 mL PBS. Fluorescence images were taken by using confocal fluorescence microscope. FIG. 34.

HeLa cells [2] = settings: 500 μM in medium, 20 h
Protocol: HeLa cells were re-suspended in 10 cm tissue culture dish after washing cells once with PBS. 0.8 mL 0.25% trypsin containing 0.1% EDTA was then added, and the cells were re-suspended with 1.6 mL complete medium. 5000 cells (in 100 μL medium) were plated into each vial on a 96 well plate to create a confluent monolayer. After adherent for 24 h, a wound was created by scraping the cell monolayer with a p200 pipet tip. The cells were washed once with 100 μL of complete medium to remove flowing cells and replace with 100 μL of complete medium. 0 h image was acquired as a reference point. […] 0 h and 20 h images were acquired at the match photographed region.

mammalian cells = settings: 500 μM, 72 hours; for cell viability: mammalian cells, MTT assay
Protocol: To verify the biocompatibility of the hydrogelators, hydrogelators 1′ and 2′ were added into a culture of mammalian cells, and the proliferation of the cells was measured.

HeLa cells [3] = settings: 500 μM, 72 hours; for cell viability: MTT assay
Description: To verify the biocompatibility of the hydrogelators, we added hydrogelator 1 or precursor 2 into the culture of HeLa cells and measured the proliferation of the cells.

[4] = system: alkaline phosphatase (ALP); settings: 12 h after the addition of alkaline phosphatase, 31P NMR
Description: Following the procedures reported by Nieddu for making nucleobase acetic acids, we first synthesized bis(tert-butyloxycarbonyl) (bis-Boc) protected adenine, (N^6-bis-Boc-adenine-9-yl)-acetic acid (4). After being activated by N-hydroxysuccinimide (NHS), 4 reacts with L-Phe to afford 5, which undergoes the same NHS activation and phenylalanine coupling to give the key intermediate 6.

| Substance | cell viability (mammalian cells) [%] | cell viability (HeLa cells [3]) [%] | further results |
| --- | --- | --- | --- |
| Thymine-Phe-glucosamine [1T′] | 90 | – | delivery of FITC-labeled nucleic acid (HeLa cells [1]): nuclear localization of DNA; effect on the migration of cells (HeLa cells [2]): little inhibitory effect |
| Guanine-Phe-Phe-glucosamine [2G′] | 90 | – | – |
| Guanine-Phe-Phe [Compound 1G] | – | – | cell viability (in words) (HeLa cells [3]): decreases slightly |
| Cytosine-Phe-Phe [Compound 1C] | – | 100 | – |
| Guanine-Phe-Phe-Tyr-phosphate [Compound 2G] | – | – | cell viability (in words) (HeLa cells [3]): decreases slightly |
| Thymine-Phe-Phe [Compound 1T] | – | 100 | – |
| Adenine-Phe-glucosamine [1A′] | – | – | cell viability (in words) (mammalian cells): decreased slightly |
| Guanine-Phe-glucosamine [1G′] | 90 | – | – |
| Thymine-Phe-Phe-glucosamine [2T′] | 90 | – | – |
| Adenine-Phe-Phe-Tyr-phosphate [Compound 2A] | – | 100 | transformation of precursor into hydrogelator [4]: completely transforms |
| Cytosine-Phe-Phe-Glucosamine [2C′] | 90 | – | – |
| Adenine-Phe-Phe [Compound 1A] | – | 100 | – |
| Cytosine-Phe-Glucosamine [1C′] | – | – | cell viability (in words) (mammalian cells): decreased slightly |
| Adenine-Phe-Phe-glucosamine [2A′] | 90 | – | – |
| Thymine-Phe-Phe-Tyr-phosphate [Compound 2T] | – | 100 | – |
| Cytosine-Phe-Phe-Tyr-phosphate [Compound 2C] | – | 100 | – |
